Laboratory results reported in PMC7339578, “Multiple circulating alkaloids and saponins from intravenous Kang-Ai injection inhibit human cytochrome P450 and UDP-glucuronosyltransferase isozymes: potential drug–drug interactions” (Chinese Medicine, 2020).
Like-named read-outs stand apart in the source and are kept apart here.

How the values were obtained:
[1] = Biliary (hepatobiliary) excretion in rats after a 30-min infusion of Kang-Ai injection; assay type: in vivo, Sprague–Dawley rats; conditions: rat, in vivo, iv
Description: (§1) For urine sampling, the rats were housed singly in metabolic cages. And then, the urine samples were collected at 0–4, 4–8 and 8–12 h after starting infusion and were weighed. Likewise, bile samples were also collected at 0–3, 3–6, 6–9 and 9–12 h after starting infusion and were weighed. The urine and bile collection tubes were all frozen at − 80 °C.
(§2) Pharmacokinetic parameters were estimated by non-compartmental analysis using WinNonlin 6.3 software (Pharsight, NC, US). Data are presented as the mean ± SD (n = 3). The area under the concentration–time curve up to the last measured point in time (AUC0-t) was calculated using the trapezoidal rule. The total plasma clearance (CLtot, p) was calculated by dividing the compound dose by the AUC0-∞, and the distribution volume at steady state (VSS) was estimated by multiplying the CLtot, p by the mean residence time (MRT). The renal excretory clearance (CLR) and hepatobiliary (CLB) was determined by dividing the cumulative amount excreted into urine (Cum.Ae-U) and bile (Cum.Ae-B) by the plasma AUC0-∞, respectively. The fractions of dose excreted into urine (fe-U) and the fractions of dose excreted into bile (fe-B) were established using the relationship Cum.Ae-U/Dose and Cum.Ae-B/Dose, respectively. Mean differences between treatment and control groups were analyzed by two-tailed unpaired Student’s t test by Graphpad Prism V5 software (SanDiego, CA). The level of significance was set at p < 0.05 (∗), p < 0.01 (∗∗) or p < 0.001 (∗∗∗).

[2] = Urinary (renal) excretion in rats after a 30-min infusion of Kang-Ai injection; assay type: in vivo, Sprague–Dawley rats
Description: as §1, §2

[3] = Plasma pharmacokinetics in rats after a 30-min intravenous infusion of Kang-Ai injection; assay type: in vivo, Sprague–Dawley rats
Description: Specific pathogen free (SPF) grade male Sprague–Dawley rats (250 ± 20) g were provided by the Experimental Animal Center of Zhengzhou University (Zhengzhou, China). These rats were kept in a designated animal room at constant temperature (22 ± 2) °C and humidity (50 ± 20) % with 12 h of light/dark per day and free access to water and food. All protocols of animal experiments were approved in accordance with the Regulations of Experimental Animal Administration issued by the Ethics Review Committee for Animal Experimentation of Jinan University (Ethical Review NO. 20190301010). Prior to the experiments, the rats were fasted for 12 h but with free access to water. After study use, the rats were euthanized with CO2 gas.
The rats in this study all received a single 30-min intravenous infusion of Kang-Ai injection via the tail veins using TYD01-02 infusion pumps (Lead Fluid, Baoding, China). The dose was derived from the label daily dose of Kang-Ai injection (60 mL/person, once daily) according to dose normalization by body surface area. For plasma pharmacokinetic studies, the rats were randomly received a single intravenous 30 min-bolus dose at 6 mL/kg. Blood samples (100 μL) were collected from the rats’ external jugular veins into heparinized polypropylene tubes at 5, 15, 30, 45 min, and 1, 1.5, 2, 3, 4, 6, 8, 12 h. After gently shaking for 10 s, the blood samples were centrifuged at 13000 g for 10 min to yield plasma samples, which were kept frozen at − 80 °C until analysis.
as §2

[4] = Stability tests of analytes in rat plasma QC samples; assay type: in vitro ADME; conditions: rat plasma
Description: […] The dilution integrity was investigated by analyzing six replicate samples with each analyte, and each analyte were diluted 10-fold with blank rat matrix. Furthermore, the diluted samples were analyzed using freshly prepared calibration curve to calculate RE and RSD, which should be no more than ± 15% as criterion.

[5] = Protein binding assay (equilibrium dialysis); assay type: in vitro ADME, rat
Description: Binding of circulating alkaloids and saponins to rat plasma was measured by equilibrium dialysis using Spectra/Por 2 dialysis membranes (molecular weight cutoff, 12–14 kDa; Rancho Dominguez, CA, USA) as described. After equilibrating for 24 h at 55 rpm and 37 °C, the dialysate and the plasma were sampled for analysis. […] The concentrations of tested matrine, oxysophocarpine and oxymatrine were 2 μmol/L, while those of astragaloside IV, III, and ginsenosides Rh1, Rg2, Rg1, Rf, Re, Rd, Rc, Rb1, Rb2, notoginsenosides R1, R2, were 4 μmol/L. The unbound fraction (fu-plasma) in rat plasma was calculated as follow: fu-plasma = Cd/Cp × 100%, where the Cd and Cp values were the concentrations of each analyte in the dialysate sample and in the post-dialysis plasma sample, respectively.

[6] = rat urine 0–12 h, Kang-Ai injection 6 mL/kg iv
[7] = rat plasma, 30-min iv infusion of Kang-Ai injection 6 mL/kg

Row | SMILES | CLB (hepatobiliary clearance) [1] [mL/h] | fe-B,0–12h (fraction of dose excreted into bile) [1] [%] | CLR (renal excretory clearance) ([2]; rat, in vivo, iv) [mL/h] | fe-U,0–12h (fraction of dose excreted into urine) ([2]; rat, in vivo, iv) [%] | CLtot, p ([3]; rat, in vivo, iv) [mL/h] | Cmax ([3]; rat, in vivo, iv) [nM] | VSS ([3]; rat, in vivo, iv) [mL] | t1/2 ([3]; rat, in vivo, iv) [min] | At -80 °C for 48 h, Mean±SD ([4]; nominal conc. 20 nM) [nM] | At -80 °C for 48 h, RE ([4]; nominal conc. 20 nM) [%] | Extracted samples at 8 °C for 18 h, Mean±SD ([4]; nominal conc. 20 nM) [nM] | Extracted samples at 8 °C for 18 h, RE ([4]; nominal conc. 20 nM) [%] | Short-term stability at room temperature for 6 h, Mean±SD ([4]; nominal conc. 20 nM) [nM] | Short-term stability at room temperature for 6 h, RE ([4]; nominal conc. 20 nM) [%] | Three freeze-thaw cycles (-80 °C ↔ 23 °C), Mean±SD ([4]; nominal conc. 20 nM) [nM] | Three freeze-thaw cycles (-80 °C ↔ 23 °C), RE ([4]; nominal conc. 20 nM) [%] | At -80 °C for 48 h, Mean±SD ([4]; nominal conc. 100 nM) [nM] | At -80 °C for 48 h, RE ([4]; nominal conc. 100 nM) [%] | Extracted samples at 8 °C for 18 h, Mean±SD ([4]; nominal conc. 100 nM) [nM] | Extracted samples at 8 °C for 18 h, RE ([4]; nominal conc. 100 nM) [%] | other results
1 | O=c1cccc([C@@H]2C[C@H](CO)[C@H]3CCCCN3C2)[nH]1 [Compound A8, Mamanine] | 2.67 ± 0.46 | 34.12 ± 4.23 | 1.23 ± 0.50 | 15.28 ± 5.11 | 7.93 ± 1.77 | 421 ± 68.1 | 16.89 ± 5.16 | 139 ± 61.8 |  |  |  |  |  |  |  |  |  |  |  |  | 
2 | O=C1CCC[C@@H]2[C@H]3CCCN4CCC[C@@](O)(CN12)[C@@H]34 [Compound A9, Sophoranol] | 0.68 ± 0.16 | 1.27 ± 0.20 | 34.24 ± 17.17 | 59.77 ± 8.80 | 56.05 ± 22.70 | 397 ± 49.7 | 53.50 ± 7.71 | 49.2 ± 22.2 |  |  |  |  |  |  |  |  |  |  |  |  | 
3 | CC(C)(O)[C@@H]1CC[C@](C)([C@H]2[C@@H](O)C[C@@]3(C)[C@@H]4C[C@H](O)[C@H]5C(C)(C)[C@@H](O[C@@H]6OC[C@@H](O)[C@H](O)[C@H]6O[C@@H]6O[C@H](CO)[C@@H](O)[C@H](O)[C@H]6O)CC[C@@]56C[C@@]46CC[C@]23C)O1 [Compound B3, Astragaloside III] |  |  |  |  |  |  |  |  | 19.85 ± 0.45 | -3.31 | 17.98 ± 1.29 | -14.29 | 19.47 ± 1.70 | -12.31 | 19.24 ± 0.59 | -6.46 | 89.68 ± 4.10 | -13.24 | 99.17 ± 12.67 | 13.54 | Short-term stability at room temperature for 6 h, Mean±SD ([4]; nominal conc. 100 nM): 91.15 ± 3.72 nM; Short-term stability at room temperature for 6 h, RE ([4]; nominal conc. 100 nM): -13.15%; Three freeze-thaw cycles (-80 °C ↔ 23 °C), Mean±SD ([4]; nominal conc. 100 nM): 103.49 ± 8.05 nM; Three freeze-thaw cycles (-80 °C ↔ 23 °C), RE ([4]; nominal conc. 100 nM): 9.29%; At -80 °C for 48 h, Mean±SD ([4]; nominal conc. 400 nM): 431.79 ± 15.31 nM; At -80 °C for 48 h, RE ([4]; nominal conc. 400 nM): 12.29%; Extracted samples at 8 °C for 18 h, Mean±SD ([4]; nominal conc. 400 nM): 400.78 ± 32.83 nM; Extracted samples at 8 °C for 18 h, RE ([4]; nominal conc. 400 nM): -8.93%; Short-term stability at room temperature for 6 h, Mean±SD ([4]; nominal conc. 400 nM): 348.69 ± 3.47 nM; Short-term stability at room temperature for 6 h, RE ([4]; nominal conc. 400 nM): -13.71%; Three freeze-thaw cycles (-80 °C ↔ 23 °C), Mean±SD ([4]; nominal conc. 400 nM): 387.44 ± 17.00 nM; Three freeze-thaw cycles (-80 °C ↔ 23 °C), RE ([4]; nominal conc. 400 nM): -6.84%; fe-U,0–12h (fraction of dose excreted into urine) [2, 6]: 2.60 ± 0.69%; bound in rat plasma ([5]; rat plasma, equilibrium dialysis): ~90%; fu-plasma (unbound fraction) ([5]; rat plasma, equilibrium dialysis 24 h, 37 °C, 2 μmol/L alkaloids, 4 μmol/L saponins): 11.04 ± 0.86%; AUC0–12h [3, 7]: 34.29 ± 5.22 nmol·h/L; t1/2 [3, 7]: 19.8 ± 7.8 min; Cmax ([3]; rat plasma, 30-min iv infusion of Kang-Ai injection 6 mL/kg, read-out: Cmax): 54.8 ± 10.2 nM; VSS (Vd) ([3]; rat, Kang-Ai injection 6 mL/kg iv): < 100 mL/kg
4 | CC(C)=CCC[C@](C)(O)[C@H]1CC[C@]2(C)[C@@H]1[C@H](O)C[C@@H]1[C@@]3(C)CC[C@H](O)C(C)(C)[C@@H]3[C@@H](O[C@@H]3O[C@H](CO)[C@@H](O)[C@H](O)[C@H]3O[C@@H]3OC[C@@H](O)[C@H](O)[C@H]3O)C[C@]12C [Compound C3, Notoginsenoside R2] | 59.94 ± 6.71 | 23.55 ± 1.97 | 25.62 ± 3.48 | 10.27 ± 2.49 | 255.80 ± 34.97 | 128 ± 13.3 | 99.30 ± 20.42 | 17.4 ± 7.2 |  |  |  |  |  |  |  |  |  |  |  |  | fu-plasma (unbound fraction) ([5]; rat, plasma): 35.24 ± 2.85%; AUC0–12h ([3]; rat, in vivo, iv): 85.57 ± 10.54 nmol·h/L
5 | CC(C)=CCC[C@](C)(O[C@@H]1O[C@H](CO[C@@H]2OC[C@H](O)[C@H](O)[C@H]2O)[C@@H](O)[C@H](O)[C@H]1O)[C@H]1CC[C@]2(C)[C@@H]1[C@H](O)C[C@@H]1[C@@]3(C)CC[C@H](O[C@@H]4O[C@H](CO)[C@@H](O)[C@H](O)[C@H]4O[C@@H]4O[C@H](CO)[C@@H](O)[C@H](O)[C@H]4O)C(C)(C)[C@@H]3CC[C@]12C [Compound D4, Ginsenoside Rb2] |  |  |  |  |  |  |  |  | 20.39 ± 1.54 | -6.96 | 19.58 ± 2.21 | -12.48 | 20.28 ± 1.99 | 10.37 | 20.89 ± 1.50 | 11.32 | 95.34 ± 8.02 | -12.47 | 96.04 ± 12.11 | -10.99 | Short-term stability at room temperature for 6 h, Mean±SD ([4]; nominal conc. 100 nM): 88.84 ± 2.61 nM; Short-term stability at room temperature for 6 h, RE ([4]; nominal conc. 100 nM): -13.48%; Three freeze-thaw cycles (-80 °C ↔ 23 °C), Mean±SD ([4]; nominal conc. 100 nM): 104.61 ± 9.20 nM; Three freeze-thaw cycles (-80 °C ↔ 23 °C), RE ([4]; nominal conc. 100 nM): 10.55%; At -80 °C for 48 h, Mean±SD ([4]; nominal conc. 400 nM): 423.10 ± 46.59 nM; At -80 °C for 48 h, RE ([4]; nominal conc. 400 nM): 12.64%; Extracted samples at 8 °C for 18 h, Mean±SD ([4]; nominal conc. 400 nM): 434.41 ± 11.65 nM; Extracted samples at 8 °C for 18 h, RE ([4]; nominal conc. 400 nM): 11.01%; Short-term stability at room temperature for 6 h, Mean±SD ([4]; nominal conc. 400 nM): 352.24 ± 2.93 nM; Short-term stability at room temperature for 6 h, RE ([4]; nominal conc. 400 nM): -12.50%; Three freeze-thaw cycles (-80 °C ↔ 23 °C), Mean±SD ([4]; nominal conc. 400 nM): 440.44 ± 2.62 nM; Three freeze-thaw cycles (-80 °C ↔ 23 °C), RE ([4]; nominal conc. 400 nM): 13.72%; CL renal ([2]; male, Sprague-Dawley, urine and plasma, rat, Kang-Ai injection 6 mL/kg iv, read-out: CLR (renal excretory clearance) (converted)): 0.0357 mL/min; fe-U,0–12h (fraction of dose excreted into urine) [2, 6]: 27.80 ± 4.47%; fraction unbound at 24 h ([5]; rat plasma, equilibrium dialysis 24 h, 37 °C, 2 μmol/L alkaloids, 4 μmol/L saponins, read-out: fu-plasma (unbound fraction)): 0.0067 ± 0.0005; clearance ([3]; male, Sprague-Dawley, plasma, rat, 30-min iv infusion of Kang-Ai injection 6 mL/kg, Table 1 unit, read-out: CLtot, p (converted)): 0.13 mL/min; Vd ([3]; male, Sprague-Dawley, plasma, rat, 30-min iv infusion of Kang-Ai injection 6 mL/kg, Table 1 unit, read-out: VSS): 0.0396 ± 0.0073 L; Cmax ([3]; male, Sprague-Dawley, rat plasma, 30-min iv infusion of Kang-Ai injection 6 mL/kg, read-out: Cmax): 301 ± 34.2 nM; half-life ([3]; male, Sprague-Dawley, rat plasma, 30-min iv infusion of Kang-Ai injection 6 mL/kg, read-out: t1/2 (converted)): 247 ± 49.8 min
